Twelve molecules from patent publication US7541364B2, “Pyridomorphinans, pyridazinomorphinans and use thereof” (priority 2003, dated 2009) can be followed below.

One data set deals with T1, opioid δ receptor (Rattus norvegicus, UniProt P33533).
T1 construct: Rat membranes are prepared each day using a partially thawed frozen rat brain; from tissue; host or cells: rat brain membranes
The data set can be described thus: Opioid δ receptor binding, [3H]DADLE displacement in rat brain membranes. As to conditions: for Ki: displacement of [3H]DADLE (1.3-2.0 nM), rat brain membranes, 100 nM DAMGO to block μ sites, read-out: Ki (nM) ± SEM δ. Background: Loss of bound radioactivity is the signal in a displacement assay; it reports binding, not function.

A further data set relates to mice. Description: 55° C. tail-flick antinociception test in mice. As to conditions: for A50: at time of peak drug effect; for naloxone sensitivity: naloxone 10 mg/kg ip, -10 min, yes = greater than 80% reduction in the antinociceptive effect. The procedure:
Analgesic Testing and Assessment of Tolerance Development. The analgesic activity of selected ligands is tested in mice using the 55° C. tail-flick test as previously described. (See Wells et al., supra.) The test compounds are administered by the intracerbroventricular (icv) route. […] To determine whether the analgesic activity of the tested compounds is mediated through opioid receptors, the blockade of antinociceptive activity by pretreatment with naloxone is carried out. The analgesic activity was considered as naloxone sensitive if greater than 80% reduction in the antinociceptive response is observed.
Antinociceptive Studies. Male ICR mice (Harlan) are used for all evaluations. Mice are housed in a temperature and humidity controlled vivarium on a 12:12 h light:dark cycle with unlimited access to food and water prior to the formal procedures. […] The dihydrochloride salt of 7h is dissolved in water and injected in a volume of 5 μL. All other compounds are dissolved in 100% DMSO and injected in a volume of 5 μL. Antinociceptive assays are performed at various times after injection.
Percent antinociception is calculated using the formula: % MPE (maximal possible effect)=100×(test−control)/(cutoff−control) where control is the predrug observation, test is the postdrug observation, and cutoff is the maximal length of stimulus allowed (10 s for 55° C. tail-flick). Antinociceptive A50 values and 95% confidence intervals are determined using linear regression software (FlashCalc). Opioid activity of the test compounds are assessed by pretreating animals with naloxone (10 mg/kg ip, −10 min) followed by an icv injection of an approximate A90 dose of test compound. […] Antinociception is assessed in the 55° C. tail-flick test at 10, 20 and 30 min. A positive response to a fixed dose of naloxone is indicated when greater than 80% reduction in the antinociceptive effect of the agonist is observed.

For the next data set, the target named is opioid μ receptor (Rattus norvegicus, UniProt P33535). To be noted: for selectivity ratio μ/δ: ratio of binding Ki values; for Ki: read-out: Ki (nM) ± SEM μ, displacement of [3H]DAMGO (1.4-3.0 nM), rat brain membranes.
A further data set addresses opioid κ receptor (Cavia porcellus, UniProt P41144). As to conditions: for selectivity ratio κ/δ: ratio of binding Ki values; for Ki: read-out: Ki (nM) ± SEM κ, displacement of [3H]U69,593 (1.2-[…]), guinea pig brain membranes.
The target of data set [1] is T2, μ receptor (Cavia porcellus, UniProt A0ACM8Q262). To be noted: for Ki: read-out: antagonist activity apparent Ki (nM ± SD) μ, inhibition of DAMGO (10 μM) stimulated [35S]GTP-γ-S binding; for EC50: read-out: agonist activity EC50 (nM ± SD) μ, δ and κ sites blocked with TIPP (1 μM) and nor-BNI (6 nM). Background: Binding of GTPγS marks nucleotide exchange on a G protein.

For the next data set, the target named is δ receptor (Cavia porcellus, UniProt A0A286XTF2). The data set can be described thus: biochemical. The arrangement: Emax: dose or concentration left out as unconfirmed.
Data set [2] concerns the target T2, μ receptor. The data set can be described thus: biochemical. On the set-up: dose or concentration left out as unconfirmed. As to conditions: read-out: agonist activity Emax % μ.
Data set [3] concerns the target T3, δ receptor (mouse vas deferens) (Mus musculus, UniProt P32300). Description: Mouse vas deferens (MVD) smooth muscle bioassay. As to conditions: for IC50: inhibition of electrically stimulated contractions, read-out: agonist activity MVD (δ) IC50. The procedure: (§1) Bioassays in Smooth Muscle Preparations. The functional activity profiles of selected ligands are also determined in the mouse vas deferens (MVD) and guinea pig ileum (GPI) smooth muscle preparations as described previously.
(§2) The agonist activity is determined by the ability of the compound to inhibit electrically stimulated contractions of the GPI and MVD. The GPI is primarily a μ receptor preparation, even though the ileum does also contain κ receptors. In the MVD, the opioid effects are predominantly mediated through δ receptors, but μ and κ receptors also exist in this tissue.
(§3) Tissues came from male ICR mice weighing 25-40 g and male Hartley guinea pigs weighing 250-500 g. The tissues are tied to gold chain with suture silk, suspended in 20 mL baths containing 37° C. oxygenated (95% O2, 5% CO2) Krebs bicarbonate solution (magnesium free for the MVD), and allowed to equilibrate for 15 min. The tissues are then stretched to optimal length previously determined to be 1 g tension (0.5 g for MVD) and allowed to equilibrate for 15 min. The tissues are stimulated transmurally between platinum wire electrodes at 0.1 Hz, 0.4 ms pulses (2-ms pulses for MVD), and supramaximal voltage. […] Tissues not producing typical results are not used. Experimental compounds were added to the baths in 14-60 μL volumes. Succeeding doses of agonist are added cumulatively to the bath at 3 min intervals to produce a concentration-response curve. The tissues are then washed extensively with fresh buffer until the original contraction height is reestablished. […] The tissues are then washed with fresh buffer for 30 min, and the agonist dose-response curve was repeated. Rightward shifts in the dose-response curves are calculated by dividing the antagonized dose-response curve IC50 value by the unantagonized IC50 value. IC50 values represent the mean of two to four tissues. IC50 estimates and their associated standard errors are determined by using a computerized nonlinear least-squares method. (MINSQ Least Squares Parameter Estimation, version 3.05; MicroMath Inc., 1999.)

For the next data set, the target named is κ receptor (Cavia porcellus, UniProt P41144). To be noted: read-out: antagonist activity apparent Ki (nM ± SD) κ.
Data set [4] has as its target T3, δ receptor (mouse vas deferens). Description: Mouse vas deferens (MVD) smooth muscle bioassay. The arrangement: from tissue; host or cells: mouse vas deferens (male ICR mice). Here is the method:
as §1, §2, §3

Where a name gives a salt, the structure may show the parent alone. Some results are limits rather than exact numbers.

Chain of δ receptor (A0A286XTF2 1-366): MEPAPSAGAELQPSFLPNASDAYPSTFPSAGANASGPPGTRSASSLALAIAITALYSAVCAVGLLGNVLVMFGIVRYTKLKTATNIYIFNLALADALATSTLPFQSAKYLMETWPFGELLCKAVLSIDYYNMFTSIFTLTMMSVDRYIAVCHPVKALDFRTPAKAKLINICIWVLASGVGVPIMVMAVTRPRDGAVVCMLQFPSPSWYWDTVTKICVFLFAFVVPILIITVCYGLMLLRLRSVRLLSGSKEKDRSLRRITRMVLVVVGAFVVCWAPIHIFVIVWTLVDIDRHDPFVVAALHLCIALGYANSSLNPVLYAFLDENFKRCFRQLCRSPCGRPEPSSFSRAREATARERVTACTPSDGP
T3 sequence (P32300 whole entry): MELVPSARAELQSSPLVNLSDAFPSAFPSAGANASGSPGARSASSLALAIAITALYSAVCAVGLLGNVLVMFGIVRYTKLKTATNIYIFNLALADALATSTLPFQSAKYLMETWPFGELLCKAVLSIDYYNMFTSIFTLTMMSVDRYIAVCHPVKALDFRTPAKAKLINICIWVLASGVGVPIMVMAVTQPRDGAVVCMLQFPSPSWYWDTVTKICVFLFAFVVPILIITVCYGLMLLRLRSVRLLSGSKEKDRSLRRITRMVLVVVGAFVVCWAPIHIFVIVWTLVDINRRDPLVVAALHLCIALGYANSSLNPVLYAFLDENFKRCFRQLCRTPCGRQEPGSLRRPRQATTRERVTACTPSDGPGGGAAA
Chain of opioid μ receptor (P33535 whole entry): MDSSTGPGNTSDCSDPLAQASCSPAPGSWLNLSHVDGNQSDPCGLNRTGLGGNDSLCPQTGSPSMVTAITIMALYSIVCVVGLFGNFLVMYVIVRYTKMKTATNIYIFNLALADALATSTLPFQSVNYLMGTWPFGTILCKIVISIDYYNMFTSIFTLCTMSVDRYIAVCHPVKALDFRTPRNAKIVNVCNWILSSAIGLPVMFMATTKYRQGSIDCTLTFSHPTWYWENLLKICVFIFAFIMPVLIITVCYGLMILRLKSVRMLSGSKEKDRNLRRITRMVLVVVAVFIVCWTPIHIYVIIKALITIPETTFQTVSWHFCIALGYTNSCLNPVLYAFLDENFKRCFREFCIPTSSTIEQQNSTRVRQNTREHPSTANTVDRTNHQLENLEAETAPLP
Chain of opioid κ receptor (P41144 whole entry): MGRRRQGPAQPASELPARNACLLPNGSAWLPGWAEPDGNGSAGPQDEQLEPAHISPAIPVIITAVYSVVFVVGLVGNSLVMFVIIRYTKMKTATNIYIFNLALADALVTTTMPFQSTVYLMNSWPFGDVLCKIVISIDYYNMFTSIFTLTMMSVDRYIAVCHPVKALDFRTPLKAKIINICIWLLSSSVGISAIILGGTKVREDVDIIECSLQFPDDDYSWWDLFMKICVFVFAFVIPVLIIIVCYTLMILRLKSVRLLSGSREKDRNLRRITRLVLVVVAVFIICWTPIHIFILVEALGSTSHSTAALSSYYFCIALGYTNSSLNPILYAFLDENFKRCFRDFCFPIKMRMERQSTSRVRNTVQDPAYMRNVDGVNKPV
T2 sequence (A0ACM8Q262 1-400): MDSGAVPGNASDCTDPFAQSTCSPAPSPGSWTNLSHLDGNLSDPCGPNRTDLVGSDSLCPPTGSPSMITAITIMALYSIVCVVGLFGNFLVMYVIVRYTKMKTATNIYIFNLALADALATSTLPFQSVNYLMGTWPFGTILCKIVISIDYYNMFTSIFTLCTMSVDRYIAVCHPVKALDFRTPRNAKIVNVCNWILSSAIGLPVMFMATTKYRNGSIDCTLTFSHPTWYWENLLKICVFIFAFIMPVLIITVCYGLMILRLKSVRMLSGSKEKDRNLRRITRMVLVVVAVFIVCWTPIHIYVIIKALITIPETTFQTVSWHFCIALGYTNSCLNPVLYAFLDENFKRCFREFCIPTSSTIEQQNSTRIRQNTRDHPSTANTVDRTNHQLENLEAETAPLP
T1 sequence (P33533 whole entry): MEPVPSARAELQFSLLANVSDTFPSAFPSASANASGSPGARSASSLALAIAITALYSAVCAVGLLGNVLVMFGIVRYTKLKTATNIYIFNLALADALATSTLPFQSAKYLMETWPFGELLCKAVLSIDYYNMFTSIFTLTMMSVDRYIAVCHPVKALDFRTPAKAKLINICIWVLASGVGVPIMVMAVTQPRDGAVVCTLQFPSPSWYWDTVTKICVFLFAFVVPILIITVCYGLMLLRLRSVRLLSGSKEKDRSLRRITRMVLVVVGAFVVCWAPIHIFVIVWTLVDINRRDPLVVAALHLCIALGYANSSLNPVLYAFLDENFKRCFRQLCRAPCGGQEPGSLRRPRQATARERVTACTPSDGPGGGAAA
Chain of κ receptor (P41144 whole entry): as the sequence (P41144 whole entry) above

Take `CN1CC[C@]23c4c5ccc(O)c4O[C@H]2c2ncc(-c4ccc(Cl)cc4)cc2C[C@H]3[C@H]1C5` (as salt: salt) [7h, 5′-(4-Chlorophenyl)-6,7-didehydro-4,5α-epoxy-3-hydroxy-17-methylpyrido[2′,3′:6,7]morphinan]: the melting point (as a rule, the temperature of the solid-liquid transition) was 276 to 278 °C (dec.).
With `C=CCN1CC[C@]23c4c5ccc(O)c4O[C@H]2c2ncc(-c4ccc(Cl)cc4)cc2C[C@@]3(O)[C@H]1C5` [7a, 17-(Allyl)-6,7-didehydro-3,14-dihydroxy-4,5α-epoxy-5′-(4-chlorophenyl)pyrido[2′,3′:6,7]morphinan], the melting point is 168 to 172 °C. Besides, the “reduction in affinity at the δ site compared to 2c” value on opioid δ receptor (N-allyl vs N-CPM) is on record as 4 fold. At opioid δ receptor, the Ki was found to be 8.2 ± 0.07 nM.
On to `CN1CC[C@]23c4c5ccc(O)c4O[C@H]2c2ncccc2C[C@@]3(O)[C@H]1C5` [7b, 6,7-Didehydro-3,14-dihydroxy-4,5α-epoxy-17-methylpyrido[2′,3′:6,7]morphinan], for which the melting point is > 230 °C. At opioid δ receptor, the Ki is 18 ± 1.4 nM. The molecule also yielded an A50 in the data set on mice (icv, mouse tail-flick) of 67.1 nmol. Further, in the data set with mice, the naloxone sensitivity entry is listed as “yes”. Moreover, at opioid μ receptor, the “selectivity ratio μ/δ” value stood at 0.4 and the Ki worked out at 7.9 ± 0.23 nM. Also, on opioid κ receptor, the “selectivity ratio κ/δ” value came to 15 and the Ki is 264 ± 18 nM. For the same molecule, the Ki at μ receptor [1] was > 1000 nM. For the same molecule, the Ki at δ receptor is > 1000 nM. The Emax (in general, the greatest response seen or fitted, relative to the assay's reference) at μ receptor [2] worked out at 40 ± 2%.
`CN1CC[C@]23c4c5ccc(O)c4O[C@H]2c2ncccc2C[C@H]3[C@H]1C5` [7f, 6,7-Didehydro-4,5α-epoxy-3-hydroxy-17-methylpyrido[2′,3′:6,7]morphinan]: the melting point lay in the range of 164 to 166 °C. In addition, the Ki on opioid δ receptor stood at 8 ± 0.8 nM. The IC50 (usually the midpoint of a concentration-inhibition curve) in data set [3] turned out to be 152 ± 25.5 nM. The “blockade of agonist activity in the MVD by antagonists” value in data set [3] (naloxone and ICI-174,864) is on record as “blocked by the nonselective antagonist naloxone but not by the δ selective antagonist ICI-174,864”. Further, in the data set with mice (icv, mouse tail-flick), the “% nociception @ 100 nmol” value was determined as 75% @100 nmol and the “factor that prevented determining the A50 value” is “insensitivity to naloxone”. Further, in the data set with mice, the naloxone sensitivity entry was “no”. At opioid μ receptor, the “selectivity ratio μ/δ” value is listed as 2.0 and the Ki was found to be 13 ± 0.5 nM. In addition, at opioid κ receptor, the “selectivity ratio κ/δ” value was determined as 8 and the Ki was found to be 66 ± 2 nM. Also, on μ receptor [1], the EC50 (usually the concentration that produces a half-maximal response) came to 502 ± 76 nM and the Ki was > 1000 nM. This molecule had a Ki on δ receptor of 595 ± 48 nM. On μ receptor [2], the Emax is 44 ± 1%.
On to `CN1CC[C@]23c4c5ccc(O)c4O[C@H]2c2ncc(-c4ccccc4)cc2C[C@H]3[C@H]1C5` [7g, 6,7-Didehydro-4,5α-epoxy-3-hydroxy-17-methyl-5′-phenylpyrido[2′,3′:6,7]morphinan], for which the Ki is 1.9 ± 0.09 nM on opioid δ receptor; 24 ± 2 nM on opioid μ receptor; 81 ± 5 nM at opioid κ receptor; > 1000 nM on μ receptor [1]; > 1000 nM at δ receptor. In addition, in data set [3], the IC50 was 48.4 ± 8.65 nM. For the same molecule, the “% nociception @ 100 nmol” value in the data set on mice (icv, mouse tail-flick) was found to be 48% @ 100 nmol. Besides, the “toxicity preventing A50 determination” value with mice (icv, mice) was “toxicity”. In the data set on mice, the naloxone sensitivity result was “yes”. The “selectivity ratio μ/δ” value at opioid μ receptor is listed as 13. In addition, the “selectivity ratio κ/δ” value at opioid κ receptor came to 43. Also, at μ receptor [2], the maximum response (Emax) was found to be 60%.
`Oc1ccc2c3c1O[C@H]1c4ncc(-c5ccc(Cl)cc5)cc4C[C@H]4[C@@H](C2)N(CC2CC2)CC[C@]314` [7l, 5′-(4-Chlorophenyl)-17-(cyclopropylmethyl)-6,7-didehydro-4,5α-epoxy-3-hydroxypyrido[2′,3′:6,7]morphinan]: the melting point lay in the range of 178 to 180 °C. Besides, the Ki at opioid δ receptor was found to be 2.6 ± 0.12 nM. Besides, in the data set on mice (icv, 300 nmol, mouse tail-flick), the “% nociception @ 300 nmol” value is on record as 18% @ 300 nmol. Moreover, the “factor that prevented determining the A50 value” in the data set with mice (icv, mouse tail-flick) was “lack of efficacy”. Also, on opioid μ receptor, the “selectivity ratio μ/δ” value is listed as 24 and the Ki worked out at 62 ± 3 nM. At opioid κ receptor, the “selectivity ratio κ/δ” value amounted to 2.3 and the Ki is 6 ± 0.3 nM. Also, the Ki at κ receptor was 11.2 ± 0.62 nM. Also, the Ki at δ receptor was determined as 1.56 ± 0.14 nM. The molecule also registered a Kb in data set [4] of 6 ± 1.33 nM.
`COc1ccc2c3c1O[C@H]1c4ncccc4C[C@@]4(O)[C@@H](C2)N(C)CC[C@]314` [7m, 6,7-Didehydro-4,5α-epoxy-14-hydroxy-3-methoxy-17-methylpyrido[2′,3′:6,7]morphinan] displayed a melting point of 210 to 212 °C. In addition, the Ki at opioid δ receptor is 143 ± 9 nM.
The corresponding values for `COc1ccc2c3c1O[C@H]1c4ncc(-c5ccc(Cl)cc5)cc4C[C@@]4(O)[C@@H](C2)N(C)CC[C@]314` [7o, 5′-(4-chlorophenyl)-6,7-didehydro-4,5α-epoxy-14-hydroxy-3-methoxy-17-methyl-pyrido[2′,3′:6,7]morphinan] are 112 to 114 °C and 21 ± 2 nM.
For the molecule `COc1ccc2c3c1O[C@H]1c4ncc(-c5ccc(Cl)cc5)cc4C[C@H]4[C@@H](C2)N(CC2CC2)CC[C@]314` [7q, 5′-(4-chlorophenyl)-17-(cyclopropylmethyl)-6,7-didehydro-4,5α-epoxy-3-methoxypyrido[2′,3′:6,7]morphinan], the melting point is 196 to 198 °C. Besides, on opioid δ receptor, the Ki was determined as 41 ± 3 nM.
Regarding `C[C@@H](NC(=O)[C@@H](N)Cc1ccc(O)cc1)C(=O)NCC(=O)N(C)[C@@H](Cc1ccccc1)C(=O)NCCO` [DAMGO, reference compound], the EC50 on μ receptor [1] came to 414 nM. For the same molecule, the maximal response (Emax) at μ receptor [2] is 100%.
Consider `CN1CC[C@]23c4c5ccc(O)c4O[C@H]2[C@@H](O)C=C[C@H]3[C@H]1C5` [Morphine, reference compound], for which the A50 in the data set on mice (icv, mouse tail-flick) came out at 4.2 nmol. In addition, the naloxone sensitivity entry in the data set on mice is given as “yes”.
On δ receptor, `C=CCN1C[C@H](C)N([C@H](c2ccc(C(=O)N(CC)CC)cc2)c2cccc(OC)c2)C[C@H]1C` [SNC80, reference compound] displayed an EC50 of 758 ± 131 nM. Besides, the Emax at δ receptor (read-out: agonist activity Emax % δ) is 100%.
